Test results reported in patent publication US9428456B2, “1-[m-carboxamido(hetero)aryl-methyl]-heterocyclyl-carboxamide derivatives” (Actelion Pharmaceuticals Ltd., priority 2012, dated 2016).

Molecular target: CXCR7 (Homo sapiens (Human), UniProt P25106)
Assay: PathHunter CHO-K1 CXCR7 b-arrestin assay (agonistic activity)
Assay type: cell-based
Conditions: PathHunter CHO-K1 CXCR7 b-arrestin cell line
In short: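 CHO-K1 cells co-expressing ProLink-tagged CXCR7 and EA-fused β-arrestin 2 (enzyme fragment complementation); compounds added in HBSS/20 mM HEPES/0.2% BSA after 3–4 h in OPTIMEM, 90 min at 37 °C. Chemiluminescent β-gal signal read after 1 h detection at room temperature; EC50 reported as geometric mean of several measurements.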

Sequence of CXCR7 (P25106 whole entry): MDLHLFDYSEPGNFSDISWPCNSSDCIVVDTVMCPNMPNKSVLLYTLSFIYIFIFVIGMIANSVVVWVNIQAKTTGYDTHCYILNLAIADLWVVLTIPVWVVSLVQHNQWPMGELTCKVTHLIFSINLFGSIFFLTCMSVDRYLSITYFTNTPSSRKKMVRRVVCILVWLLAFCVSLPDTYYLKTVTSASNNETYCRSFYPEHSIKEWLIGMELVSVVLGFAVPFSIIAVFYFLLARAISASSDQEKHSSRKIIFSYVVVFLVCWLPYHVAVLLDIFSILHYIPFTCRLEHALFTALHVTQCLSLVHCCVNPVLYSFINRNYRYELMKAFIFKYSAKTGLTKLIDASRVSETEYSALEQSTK
Sequence of CXCR7 (P32121 whole entry partner): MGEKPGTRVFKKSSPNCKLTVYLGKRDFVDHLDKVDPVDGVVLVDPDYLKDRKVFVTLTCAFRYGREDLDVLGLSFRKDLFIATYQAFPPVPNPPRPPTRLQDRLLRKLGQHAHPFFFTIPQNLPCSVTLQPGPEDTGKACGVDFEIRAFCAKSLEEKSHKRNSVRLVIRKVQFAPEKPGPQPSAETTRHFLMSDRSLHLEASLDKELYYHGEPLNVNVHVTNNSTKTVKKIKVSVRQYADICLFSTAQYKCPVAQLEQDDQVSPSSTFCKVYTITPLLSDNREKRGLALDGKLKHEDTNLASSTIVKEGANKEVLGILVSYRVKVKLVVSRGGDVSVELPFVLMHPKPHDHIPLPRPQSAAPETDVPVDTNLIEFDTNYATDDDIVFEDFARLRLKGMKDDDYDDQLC

Structure (SMILES) | EC50 [nM]
CC(C)(C)NC(=O)C1CCN(Cc2cccc(NC(=O)c3cccc(C(F)(F)F)n3)c2)CC1 [Example 1.228] | 1
CC(C)(C)NC(=O)C1CCN(Cc2cccc(NC(=O)Cc3cc(F)c(Cl)cc3Cl)c2)CC1 [Example 1.252] | 4
Cc1cncc(C(=O)Nc2cccc(CN3CCCC(C(=O)NC(C)C)CC3)c2)c1 (racemic) [Example 1.289] | 113
Cc1cc(C(=O)Nc2cccc(CN3CCC(C(=O)NC4CCCCC4)CC3)c2)cc(C2CCCC2)n1 [Example 1.054] | 41
O=C(Nc1cccc(CN2CCC(C(=O)NC3CCCCC3)CC2)c1)c1cncc2ccccc12 [Example 1.022] | 97
Cc1cc(C(=O)Nc2cccc(CN3CCC(C(=O)NC4CCCCC4)CC3)c2)ccc1F [Example 1.118] | 3
CCC(C)(C)NC(=O)C1CCN(Cc2cccc(NC(=O)c3ccc(C(F)(F)F)c[n+]3[O-])c2)CC1 [Example 1.347] | 16
Cc1ccc(NC(=O)c2ccc(F)cc2)cc1CN1CCC(C(=O)NC(C)(C)C)CC1 [Example 1.300] | 1
C[C@H]1C[C@@H](C(=O)NC2CCCCC2)CCN1Cc1cccc(NC(=O)c2cccc(C(F)(F)F)n2)c1 [Example 2.105, 6-Trifluoromethyl-pyridine-2-carboxylic acid [3-((2S,4S)-4-cyclohexylcarbamoyl-2-methyl-piperidin-1-ylmethyl)-phenyl]-amide or 6-trifluoromethyl-pyridine-2-carboxylic acid [3-((2R,4R)-4-cyclohexylcarbamoyl-2-methyl-piperidin-1-ylmethyl)-phenyl]-amide] | 3
Cc1ccc(F)c(C(=O)Nc2cccc(CN3CCC(C(=O)NC4CCCCC4)CC3)c2)c1 [Example 1.116] | 6
Cn1cc(CC(=O)Nc2cccc(CN3CCC(C(=O)NC4CCCCC4)CC3)c2)c2ccccc21 [Example 1.030] | 18
O=C(Nc1cccc(CN2CCC(C(=O)NC3CCCCC3)CC2)c1)c1cccc(Cl)n1 [Example 1.078] | 1
Cc1cc(C(=O)Nc2cccc(CN3CCC(C(=O)NC4CCCCC4)CC3)c2)nc(N(C)C)n1 [Example 1.088] | 24
Cc1cncc(C(=O)Nc2cccc(CN3CCC(C(=O)NC(C)(C)C)CC3)c2C)c1 [Example 1.314] | 145
O=C(Nc1cccc(CN2CCC(C(=O)NC3CCCCC3)CC2)c1)c1ccc(C(F)(F)C(F)(F)F)cc1 [Example 1.153] | 10
O=C(Nc1cccc(CN2CCC(C(=O)NC3CCCCC3)CC2)c1)c1ccc[nH]1 [Example 1.046] | 5
Cc1ccc(C(=O)Nc2cccc(CN3CCC(C(=O)NC4CCCCC4)CC3)c2)cn1 [Example 1.064] | 19
O=C(Nc1cccc(CN2CCC(C(=O)NC3CCCCC3)CC2)c1)c1cncc(F)c1 [Example 1.056] | 7
CC(C)(C)NC(=O)C1CCN(Cc2cccc(NC(=O)C3CCOC3)c2)CC1 (racemic) [Example 1.256] | 222
Cc1ccnc(C(=O)Nc2cccc(CN3CCC(C(=O)NC4CCCCC4)CC3)c2)c1 [Example 1.082] | 4
O=C(Nc1cccc(CN2CCC(C(=O)NC3CCCCC3)CC2)c1)c1cccnc1C(F)(F)F [Example 1.059] | 393
CC(C)(C)NC(=O)C1CCN(Cc2cccc(NC(=O)Cc3ccc(F)cc3Cl)c2)C1 (racemic) [Example 2.097, rac-1-{3-[2-(2-Chloro-4-fluoro-phenyl)-acetylamino]-benzyl}-pyrrolidine-3-carboxylic acid tert-butylamide] | 37
Cc1cc(C(=O)Nc2cccc(CN3CCC(C(=O)NC(C)(C)C)CC3)c2)cnn1 [Example 7.001, 6-Methyl-pyridazine-4-carboxylic acid [3-(4-tert-butylcarbamoyl-piperidin-1-ylmethyl)-phenyl]-amide] | 62
Cc1nc2cc(C(=O)Nc3cccc(CN4CCC(C(=O)NC(C)(C)C)CC4)c3)ccc2s1 [Example 1.354] | 108

Structure (SMILES) | EC50 [nM]
CC(C)(C)NC(=O)C1CCN(Cc2cccc(NC(=O)c3ccc(S(C)(=O)=O)cc3)c2)CC1 [Example 1.351] | 176
Cc1cncc(C(=O)Nc2cccc(C(C)N3CCC(C(=O)NC4CCCCC4)CC3)c2)c1 (racemic) [Example 1.172] | 28
CC(c1cccc(NC(=O)c2ccc(C(F)(F)F)cc2)c1)N1CCC(C(=O)NC2CCCCC2)CC1 (racemic) [Example 1.177] | 37
O=C(Nc1cccc(CN2CCC(C(=O)NC3CCCCC3)CC2)c1)c1ccc(F)cc1 [Example 1.156] | 2
CC(C)(C)NC(=O)C1CCN(Cc2cccc(NC(=O)c3cccnc3C(F)(F)F)c2)CC1 [Example 1.231] | 99
CC(C)C(C(=O)Nc1cccc(CN2CCC(C(=O)NC3CCCCC3)CC2)c1)c1ccccc1 (racemic) [Example 1.036] | 35
O=C(Nc1cccc(CN2CCC(C(=O)NC3CCCCC3)CC2)c1)c1ccno1 [Example 1.049] | 7
O=C(Nc1ccc(Cl)c(CN2CCC(C(=O)NC3CCCC3)CC2)c1)c1cccc(C(F)(F)F)n1 [Example 1.218] | 2
CC(C)(C)c1ccc(C(=O)Nc2cccc(CN3CCC(C(=O)NC4CCCCC4)CC3)c2)cc1 [Example 1.032] | 34
Cc1cc(C)cc(C(=O)Nc2cccc(CN3CCC(C(=O)NC4CCCCC4)CC3)c2)c1 [Example 1.112] | 21
Cc1ccc(C(=O)Nc2cccc(CN3CCC(C(=O)NC4CCCCC4)CC3)c2)cc1C [Example 1.113] | 7
COc1ccc(CN2CCC(C(=O)NC(C)(C)C)CC2)cc1NC(=O)c1cccc(C(F)(F)F)n1 [Example 1.304] | 4
O=C(NC1CCCCC1)C1CCN(Cc2cccc(NC(=O)C3CC3c3ccccc3)c2)CC1 (racemic) [Example 1.029] | 5
Cc1cncc(C(=O)Nc2ccnc(CN3CCC(C(=O)NC4CCCCC4)CC3)n2)c1 [Example 1.285] | 199
Cc1ncncc1C(=O)Nc1cccc(CN2CCC(C(=O)NC3CCCCC3)CC2)c1 [Example 1.086] | 527
O=C(Nc1cccc(CN2CCC(C(=O)NC3CCCCC3)CC2)c1)c1cc(F)c(Cl)nc1Cl [Example 1.089] | 15
O=C(CCc1nc2ccccc2[nH]1)Nc1cccc(CN2CCC(C(=O)NC3CCCCC3)CC2)c1 [Example 1.045] | 2490
CCc1cncc(C(=O)Nc2cccc(CN3CCC(C(=O)NC4CCCCC4)CC3)c2)c1 [Example 1.154] | 2
CC(C)(C)NC(=O)C1CCN(Cc2cccc(NC(=O)C3COc4ccccc43)c2)CC1 (racemic) [Example 1.266] | 6
O=C(Nc1cccc(CN2CCC(C(=O)NC3CCCCC3)CC2)c1)c1ccc2ccccc2c1 [Example 1.007] | 6
Cc1cc(C)nc(C(=O)Nc2cccc(C(C)N3CCC(C(=O)NC4CCCCC4)CC3)c2)c1 (racemic) [Example 1.192] | 102
Cc1ccc(C(=O)Nc2cccc(CN3CCC(C(=O)NC4CCCCC4)CC3)c2)c(C)c1 [Example 1.111] | 4
CC(C)CN(C)C(=O)C1CCN(Cc2cccc(NC(=O)c3cncc(C(F)(F)F)c3)c2)CC1 [Example 1.276] | 6
Cc1cncc(C(=O)Nc2cccc(CN3CCC(C(=O)NC4CCCCC4)CC3)c2)c1 [Example 6.001, N-(3-((4-(cyclohexylcarbamoyl)piperidine-1-yl)d2methyl)phenyl)-5-methylnicotinamide] | 5
